This note sets out measurements from patent US20230233650A1, “NOVEL FATTY ACID MODIFIED UROCORTIN 2 DERIVATIVES AND THE USES THEREOF” (Novo Nordisk A/S, priority 2021, published 2023).

Structures are written as SMILES. pEC50: −log10 of the molar value. Numbered stars: 1 amine (or outer) side, 2 acyl side, 3 side chain; on linkers, the order of the positions; unused ones are H or OH. Side chains are listed from the residue outwards. Peptide text beside a SMILES is read from it. * marks the point of attachment. C20 diacid = O=C(O)CCCCCCCCCCCCCCCCCCC(=O)*; γGlu = O=C(O)[C@H](CCC(=O)[*:2])N[*:1]; AEEA = NCCOCCOCC(=O)O A value given as a limit tells only on which side of the number the result lay.

The target in the assay is T1, Human CRF1 receptor (Homo sapiens, UniProt P34998).
T1 construct: host or cells: CHO-K1 (membrane preparation)
T1 sequence (P34998 24-415): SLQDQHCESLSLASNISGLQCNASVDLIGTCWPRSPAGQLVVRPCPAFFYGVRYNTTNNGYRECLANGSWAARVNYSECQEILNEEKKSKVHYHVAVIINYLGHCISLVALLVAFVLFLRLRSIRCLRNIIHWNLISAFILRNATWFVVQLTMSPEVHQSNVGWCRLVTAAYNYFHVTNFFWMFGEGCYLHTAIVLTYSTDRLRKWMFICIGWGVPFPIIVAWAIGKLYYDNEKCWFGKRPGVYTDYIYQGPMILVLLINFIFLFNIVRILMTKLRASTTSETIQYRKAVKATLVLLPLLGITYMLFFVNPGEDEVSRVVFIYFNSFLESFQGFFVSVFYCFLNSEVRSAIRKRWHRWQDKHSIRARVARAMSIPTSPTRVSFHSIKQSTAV
The assay is described as follows: CRF1 receptor CHO cell β-Arrestin recruitment assay (PathHunter). The settings on record: CHO-K1 cells, 0.1% ovalbumin. It is filed as cell-based. How it is done:
The purpose of this investigation was to test the in vitro agonistic activity (potency) of the compounds of the invention to receptor subtype CRF1 and CRF2. […] The native, human Ucn1 and Ucn2 peptides were included as references. Assay principle: Activated G-protein coupled receptors (GPCRs) can interact with the Arrestin family of signalling proteins. The potency of peptides for CRF induced Arrestin recruitment is determined using the PathHunter Enzyme Fragment Complementation approach substantially as described in von […] et al., FASEB J., 2007, 3819, 26 and Hamdouchi et al., J. Med. Chem., 2016, 59, 10891-10916. The target GPCR is tagged with the small fragment of β-gal called ProLinkTM, a low affinity version of enzyme donor and co-expressed in cells stably expressing β-Arrestin tagged with enzyme acceptor. Activation of the GPCR stimulates binding of β-Arrestin to the ProLink-tagged GPCR, forcing complementation of ProLink and enzyme acceptor, resulting in the formation of an active β-gal enzyme. The resulting active enzyme hydrolyses substrate present in the PathHunter detection reagents to generate light. […] Plates were first incubated for 90 minutes in a 37° C., 5% CO2 incubator and then 5 μL of PathHunter detection reagent was added (DiscoveRx, 93-0001) and the plates were incubated at room temperature for 60 minutes after which the luminescence signal was measured (BMG […]). […]

In the case of `CC[C@H](C)[C@H](NC(=O)[C@H](CCC(=O)O)NC(=O)[C@H](C)NC(=O)[C@H](CC(N)=O)NC(=O)[C@@H](NC(=O)[C@@H](NC(=O)[C@H](C)NC(=O)[C@H](CCC(N)=O)NC(=O)[C@H](CCC(=O)O)NC(=O)[C@H](CCCNC(=N)N)NC(=O)[C@H](C)NC(=O)[C@H](C)NC(=O)[C@H](CCCNC(=N)N)NC(=O)[C@H](C)NC(=O)[C@H](CCCNC(=N)N)NC(=O)[C@H](C)NC(=O)[C@H](CCC(N)=O)NC(=O)[C@H](CCC(=O)O)NC(=O)[C@H](CC(C)C)NC(=O)[C@H](CC(C)C)NC(=O)[C@@H](NC(=O)[C@H](CCC(N)=O)NC(=O)[C@H](CC(C)C)NC(=O)[C@H](CC(C)C)NC(=O)CNC(=O)[C@@H](NC(=O)[C@@H]1CCCN1C(=O)[C@@H](NC(=O)[C@H](CC(=O)O)NC(=O)[C@H](CC(C)C)NC(=O)[C@H](CO)NC(=O)[C@H](CC(C)C)NC(=O)[C@@H](NC(=O)[C@@H](NC(=O)[C@@H](N)CCCCNC(=O)COCCOCCNC(=O)COCCOCCNC(=O)CC[C@H](NC(=O)CC[C@H](NC(=O)CC[C@H](NC(=O)CCCCCCCCCCCCCCCCCCC(=O)O)C(=O)O)C(=O)O)C(=O)O)[C@@H](C)CC)C(C)C)C(C)C)[C@@H](C)CC)[C@@H](C)CC)[C@@H](C)O)[C@@H](C)O)C(=O)N[C@@H](CC(C)C)C(=O)N[C@@H](C)C(=O)N[C@@H](CCC(=O)O)C(=O)N[C@H](C(N)=O)C(C)C` [Compound 3] (H-K([AEEA-AEEA-γGlu-γGlu-γGlu-C20 diacid])IVLSLDVPIGLLQILLEQARARAAREQATTNAEILAEV-NH2), the pEC50 – broadly, the negative decadic logarithm of the EC50, by convention in mol/L – is < 5.00.
As to `CC[C@H](C)[C@H](NC(=O)[C@H](CCC(=O)O)NC(=O)[C@H](C)NC(=O)[C@H](CC(N)=O)NC(=O)[C@@H](NC(=O)[C@@H](NC(=O)[C@H](C)NC(=O)[C@H](CCC(N)=O)NC(=O)[C@H](CCC(=O)O)NC(=O)[C@H](CCCNC(=N)N)NC(=O)[C@H](C)NC(=O)[C@H](C)NC(=O)[C@H](CCCNC(=N)N)NC(=O)[C@H](C)NC(=O)[C@H](CCCNC(=N)N)NC(=O)[C@H](C)NC(=O)[C@H](CCC(N)=O)NC(=O)[C@H](CCC(=O)O)NC(=O)[C@H](CC(C)C)NC(=O)[C@H](CC(C)C)NC(=O)[C@@H](NC(=O)[C@H](CCC(N)=O)NC(=O)[C@H](CC(C)C)NC(=O)[C@H](CC(C)C)NC(=O)CNC(=O)[C@@H](NC(=O)[C@@H]1CCCN1C(=O)[C@@H](NC(=O)[C@H](CC(=O)O)NC(=O)[C@H](CC(C)C)NC(=O)[C@H](CO)NC(=O)[C@H](CC(C)C)NC(=O)[C@@H](NC(=O)[C@@H](NC(=O)[C@@H](N)CCCCNC(=O)COCCOCCNC(=O)COCCOCCNC(=O)CC[C@H](NC(=O)CC[C@H](NC(=O)CC[C@H](NC(=O)CCCCCCCCCCCCCCCCCCC(=O)O)C(=O)O)C(=O)O)C(=O)O)[C@@H](C)CC)C(C)C)C(C)C)[C@@H](C)CC)[C@@H](C)CC)[C@@H](C)O)[C@@H](C)O)C(=O)N[C@@H](CC(C)C)C(=O)N[C@@H](CCC(=O)O)C(=O)N[C@@H](CCCNC(=N)N)C(=O)N[C@H](C(N)=O)C(C)C` [Compound 4] (H-K([AEEA-AEEA-γGlu-γGlu-γGlu-C20 diacid])IVLSLDVPIGLLQILLEQARARAAREQATTNAEILERV-NH2), the negative-log EC50 (pEC50) is < 5.00.
